Measurements: patent publication US20240101685A1, “NEAR INFRARED PHOTOIMMUNOTHERAPY (NIR-PIT) COMBINATION THERAPY TO TREAT CANCER” (THE UNITED STATES OF AMERICA, as represented by the …, priority 2021, published 2024)

Experiments:
[1] = IR700 at 689 nm; Photofrin 630 nm; Foscan 652 nm; NPe6/Laserphyrin 654 nm; cited from earlier work
MC38-luc tumors [2] = experiment: CD44-targeted NIR-PIT with or without L-NaAA
Method: Photon counts were evaluated with the Photon Imager (Biospace Lab) using relative light units. ROIs were placed over the entire tumor. The counts per minute of relative light units were calculated using M3 Vision Software (Biospace Lab) and converted to the percentage based on those before NIR-PIT using the following formula: [(relative light units after treatment)/(relative light units before treatment)×100(%)]. Chemiluminescent images were continually recorded 1 and 3 hours after NIR-PIT.
(§2) The APC was injected 6 days after inoculation of cancer cells into C57BL/6 mice. […] NIR light (690 nm, 150 mW cm-2, 50 J cm-2) was exposed on the next day. […] Upon NIR light exposure, the normal tissue adjacent to the tumor was covered with aluminum foil to ensure that the NIR light exposure is limited in tumor site. Dorsal fluorescence images of IR700 were obtained with the 700 nm fluorescence channel of the Pearl Imager (LI-COR Biosciences). The images were taken pre- and post-NIR-PIT. ROIs were placed on the tumor. The dorsal edema formation of treated mouse 1 day after NIR light irradiation was imaged by a camera. Acute treatment efficacy was evaluated with BLI analysis, in which, D-luciferin (3 mg mouse-1; Gold Biotechnology) was intraperitoneally injected into mice. Luciferase activity was analyzed with a BLI system (Biospace Lab) using relative light units. ROIs were placed over the entire tumor. The counts per minute of relative light units were calculated using M3 Vision Software (Biospace Lab) and converted to the percentage based on those before NIR-PIT using the following formula: [(relative light units after treatment)/(relative light units before treatment)×100(%)]. Bioluminescence im-ages were continually recorded until the onset of depilation-induced skin pigmentation precluded accurate measurement.
Under pentobarbital anesthesia, MRI was performed on a 3-T scanner using an in-house 10-inch circle shaped mouse receiver coil array (Elition 3T; Philips Medical Systems, Best, Nether-lands) 1 day after NIR light exposure. Scout images were obtained to accurately locate the tumor. All mice underwent T2-weighted fat-saturation imaging (T2WI fat-sat) and short-TI inversion recovery imaging (STIR). All images were obtained in the coronal plane and T2WI fat-sat images were also obtained in the axial plane. All images were analyzed using Image J software, and 3D imaging were recon-structed. The high signal intensity area derived from each image in T2WI fat-sat and STIR was calculated by Image J.

MDAMB468 GFP-luc cells = experiment: In vitro NIR-PIT with reducing agents, PI staining; settings: 10 mM NaN3
Method: (§3) A431 GFP-luc or MDAMB468 GFP-luc cells (4×10^5) were seeded into 12-well plates, and incubated for 24 hours, and then exposed to media containing panitumumab-IR700 (10 μg mL^−1) for 1 hour at 37° C. […] NIR light (690 nm, 150 mW cm^−2, 1 or 2 J cm^−2 for A431 GFP-luc, 20 J cm^−2 for MDAMB468 GFP-luc) was irradiated to cancer cells. For flow cytometric analyses, the cells were collected with trypsin one hour after NIR light exposure. Cells were then stained with propidium iodide (PI, 1 μg mL^−1) at RT for 5 minutes. The fluorescence of the cells was then analyzed with a flow cytometer (FACSCalibur, BD Biosciences, San Jose, CA, USA) and FlowJo software (BD Biosciences).

MC38-luc tumors [3] = tested on: MC38-luc tumors
Method: ROIs were placed over the entire tumor. […] (A) Treatment schedule.
(§1) The images were taken pre- and post-NIR-PIT. ROIs were placed on the tumor. […] ROIs were placed over the entire tumor.
Scout images were obtained to accurately locate the tumor.
Single-cell suspensions from tumor samples were pre-pared using following protocol. Whole tumors were incubated in the RPMI 1640 medium (Thermo Fisher Scientific) containing collagenase type IV (1 mg mL^−1; Thermo Fisher Scientific) and DNase I (20 μg mL^−1; Millipore Sigma, Burlington, MA) in 37° C. for 30 minutes, then gently cut with scissors and mashed with the back of the plunger of 3 mL syringe. The tissues were passed through a 70 μm cell strainer (Corning, Corning, NY). A total of 3.0×10^6 cells was stained and data for 5.0×10^5 cells were collected for each tumor. The cells were stained with anti-CTLA4 antibody (Clone; UC10-4B9) from Thermo Fisher Scientific. To distinguish live cells from dead cells, cells were also stained with LIVE/DEAD Fixable Dead Cell Stain (Thermo Fisher Scientific). The fluorescence of the cells was then analyzed with the flow cytometer (FACSLyric, BD Biosciences) and FlowJo software (FlowJo LLC). Dead cells were removed from analysis based on FSC, SSC, and staining with LIVE/DEAD Fixable Dead Cell Stain.

MOC2-luc tumors = experiment: CD44-targeted NIR-PIT with or without L-NaAA
Method: as §2

A431 GFP-luc tumor = experiment: Panitumumab NIR-PIT with or without L-NaAA; format: in vivo, athymic mice; settings: with L-NaAA
Text: as §1

LL/2-luc tumors = experiment: CD44-targeted NIR-PIT with or without L-NaAA; format: in vivo, C57BL/6 mice
Text: as §1

MC38-luc tumor = experiment: In vivo efficacy of L-NaAA alone; set-up: species or system mice
Text: (C) Luciferase activity calculated from BLI (n=10, mean±SEM; repeated measures two-way ANOVA followed by Tukey's test; N.S., not significant).

A431 GFP-luc cells = experiment: In vitro NIR-PIT with reducing agents, PI staining; settings: for cytotoxicity of Pan-PIT in the presence of NaN3: 10 mM NaN3
Method: as §3

[4] = IR700 with L-cysteine, NaN3 added
[5] = Method: Before and after each irradiation, the 700 nm fluorescence intensity was acquired by a fluorescence imager (Pearl Imager, LI-COR Bioscience, Lincoln, NE, USA). Pearl Cam Software (LI-COR Biosciences) was used for analyzing fluorescence. The same regions of interest (ROIs) were put on the solution in each tube, and then mean 700 nm fluorescence intensity was measured. The appearance of the tube before and after NIR light irradiation was imaged. All the experiments were carried out at RT.
LL2-luc tumor = settings: IL15 1 ug i.p. preconditioning + anti-PD-L1-IR700 + NIR light 50 J/cm2
Method: Tumors were established in mice by administration of 5×10^5 LL2 cells s.c. Four days later, IL15 (1 ug i.p.) was administered, followed one day later with anti-PD-L1-IR700 (or vehicle control), followed with or without NIR light (50 J/cm2) another day later.

[6] = dose of 3 mg/kg for melanoma therapy; cited from earlier work
mEERL-hEGFR cells = experiment: In vitro NIR-PIT, PI staining and MTT assay; format: cell-based, murine
Method: After washing with PBS, phenol-red-free RPMI 1640 medium was added. NIR light (690 nm) was irradiated to cancer cells with an ML7710 laser system (Modulight, Tampere, Finland) at a power density of 150 mW/cm^2. One hour after NIR-PIT, the cells were collected with trypsin, and stained with propidium iodide (PI, 1 μg/mL) at room temperature for 5 minutes, and then assessed for PI positivity on a BD FACSCalibur (BD Biosciences) using CellQuest software (BD Biosciences) using FlowJo software (FlowJo LLC). To assess cell viability, cell proliferation was evaluated by 3-(4,5-Dimethyl-2-thiazolyl)-2,5-diphenyl-2H-tetrazolium bromide (MTT) assay. Cells were incubated and treated, as described above. One hour after NIR-PIT, the medium was removed and 500 μl of MTT reagent (SIGMA Aldrich; 0.5 mg/ml) was added to each well. After 1 hour incubation, the supernatant was removed and 500 μL of 2-propanol was added to each well to dissolve the crystal formazan dye. After transferring 100 μL of the supernatant to 96 well plate each, absorbance was measured at 570 nm on a microplate reader (Synergy™ H1). For relative quantification, the value of absorbance in each group was normalized to that in the control group.

mEERL-hEGFR tumors [7] = experiment: Histologic analysis (H-E staining) 1 hour after NIR-PIT; format: in vivo, C57BL/6 mice; settings: tumors harvested 1 hour after light exposure
Text: Tumors from mEERL-hEGFR, MC38-luc, and LLC tumors were harvested, formalin-fixed and paraffin-embedded, and sectioned at […]. Following standard hematoxylin and eosin (HE) staining, bright-light photomicrographs were obtained using Mantra Quantitative Pathology Workstation (PerkinElmer).

mEERL-hEGFR tumors [8] = tested on: mEERL-hEGFR tumors; set-up: tumor volume: dose or concentration left out as unconfirmed
Method: The lower part of the body of the mice was shaved before NIR light irradiation and image analysis. Tumors were established via subcutaneous injection of 1×10^6 cells in the right or both side of dorsal flank for each model. Mice with tumors reaching approximately 50-100 mm^3 in volume were used for the experiments. Mice were monitored each day, and tumor volume (tumor volume=length×width^2×0.5) was measured twice a week until the tumor volume reached 2,000 mm^3, whereupon the mice were euthanized with inhalation of carbon dioxide gas. In a bilateral model, the mice were euthanized when either tumor reached its humane endpoint. Tumor disappearance for 4 weeks or longer after treatment was defined as complete remission.
The mixed antibody/APC was injected 6 days after inoculation of cancer cells into C57BL/6 mice. Twenty-four hours after administration, NIR light (690 nm, 150 mW/cm^2) was irradiated to tumors at 50 J/cm^2 in all groups. The surface of the mouse other than the tumor was covered with aluminum foil. […] In the bilateral model, NIR light (690 nm, 150 mW/cm^2) was given only to right-sided tumors at 50 J/cm^2 and the remainder of the mouse (including the left-sided tumor) was covered with aluminum foil during irradiation.

[9] = 1 day after CD44-targeted NIR-PIT
[10] = with or without L-NaAA injection
[11] = CD44-targeted NIR-PIT with L-NaAA

Oc1cccc(-c2c3nc(c(-c4cccc(O)c4)c4ccc([nH]4)c(-c4cccc(O)c4)c4nc(c(-c5cccc(O)c5)c5ccc2[nH]5)CC4)C=C3)c1 [Foscan®, meta-tetrahydroxyphenylchlorin]
extinction coefficient [1]: 22000 M⁻¹ cm⁻¹

O=C1O[C@H]([C@@H](O)CO)C([O-])=C1O.[Na+] [L-NaAA, L-sodium ascorbate]
edema on T2WI fat-sat MRI (MC38-luc tumors [2]; [9]): minimal edema was observed just around the treated tumors
high signal intensity area on T2WI fat-sat images (MC38-luc tumors [2]; [9]): significantly larger in the group treated without L-NaAA
ROS (chemiluminescence imaging with L-012) (MC38-luc tumors [2]; CD44-targeted NIR-PIT with vs without L-NaAA): significantly lower intensity (lower ROS) on CLI
body weight (MC38-luc tumors [2]; NIR-PIT with vs without L-NaAA): No significant difference in body weight
edema formation 1 day after NIR-PIT (MC38-luc tumors [2]; [10]): no edema was detected
cytotoxicity of Pan-PIT in the presence of NaN3 (MDAMB468 GFP-luc cells): restored cytotoxicity of Pan-PIT suppressed by NaN3
edema formation (MC38-luc tumors [3]; 1 day after CTLA4-targeted NIR-PIT): suppressed both macroscopically and by MRI
BLI intensity by day 6 post NIR-PIT (MC38-luc tumors [3]; CTLA4-IR700 50 μg, NIR 50 J cm-2, L-NaAA 80 mg mouse-1 i.p.): no difference was observed between the two groups
ROS (MC38-luc tumors [3]; CTLA4-targeted NIR-PIT with vs without L-NaAA): higher ROS was also detected in the NIR-PIT without L-NaAA group
body weight the day after NIR-PIT (MC38-luc tumors [3]; NIR-PIT with L-NaAA group): significant lower weight
CTLA4hi cells among total live cells (MC38-luc tumors [3]; three hours after CTLA4-targeted NIR-PIT): selectively depleted in both NIR-PIT with and without L-NaAA groups
body weight (MOC2-luc tumors; [11]): no significant difference in body weight was detected
antitumor effects of CD44-targeted NIR-PIT (BLI) (MOC2-luc tumors; with L-NaAA): not changed
edema formation 1 day after NIR-PIT (MOC2-luc tumors; [10]): no edema was detected
efficacy of pan-PIT (BLI) (A431 GFP-luc tumor): did not affect the efficacy of pan-PIT
body weight (LL/2-luc tumors; [11]): no significant difference in body weight was detected
antitumor effects of CD44-targeted NIR-PIT (BLI) (LL/2-luc tumors; with L-NaAA): not changed
edema formation 1 day after NIR-PIT (LL/2-luc tumors; [10]): no edema was detected
tumor growth (BLI) (MC38-luc tumor): not to affect tumor growth

N[C@@H](CS)C(=O)O [L-cysteine]
cytotoxicity of Pan-PIT in the presence of NaN3 (A431 GFP-luc cells): could not reverse the effects of NaN3
cytotoxic damage of Pan-PIT, low concentration of reducing agent (A431 GFP-luc cells; L-NaAA low or pharmacological concentrations, L-cysteine 0.001 mM): slightly enhanced the cytotoxic damage
cytotoxic damage of Pan-PIT, high concentration of reducing agent (A431 GFP-luc cells; L-NaAA over 1 mM, L-cysteine 0.1 mM or higher): compromised the cytotoxicity

C=Cc1c(C)c2cc3nc(c(CC(=O)N[C@@H](CC(=O)[O-])C(=O)[O-])c4[nH]c(cc5nc(cc1[nH]2)C(C)=C5CC)c(C)c4C(=O)[O-])[C@@H](CCC(=O)[O-])[C@@H]3C.[Na+].[Na+].[Na+].[Na+] [NPe6/Laserphyrin®, mono-L-aspartylchlorin e6]
extinction coefficient [1]: 40000 M⁻¹ cm⁻¹

[N-]=[N+]=[N-] [NaN3, Sodium azide, reference compound]
cytotoxicity of Pan-PIT in the presence of NaN3 (A431 GFP-luc cells): suppression of NIR-PIT cytotoxicity
ligand cleavage (remaining IR700) [4]: ligand cleavage decreased

C[Si](C)(CCC[N+](CCCS(=O)(=O)O)(CCCS(=O)(=O)O)CCCS(=O)(=O)O)O[Si]1(O[Si](C)(C)CCC[N+](CCCS(=O)(=O)O)(CCCS(=O)(=O)O)CCCS(=O)(=O)O)n2c3c4ccccc4c2N=C2N=C(N=c4c5ccccc5c(n41)=NC1=NC(=N3)c3ccccc31)c1ccccc12 [Pc 3, Bis{3-[Tris(3-Sulfopropyl)]Ammoniopropyldimethylsilvloxide} Silicon Phthalocyanine]
solubility of Pc 3 after light exposure [5]: dramatically changed its solubility

IL-15: immunoactivator interleukin
survival (LL2-luc tumor): increased survival
tumor volume (LL2-luc tumor): substantially reduced tumor volume

Ipilimumab: anti-CTLA4 antibody
patients with gastrointestinal symptoms (irAE) [6]: about 40%

Photofrin®
extinction coefficient [1]: 1200 M⁻¹ cm⁻¹

pan-IR700
cancer cell death (incorporation of propidium iodine and MTT assay) (mEERL-hEGFR cells; APC 10 μg/mL 1 h, NIR light 690 nm, read 1 h after NIR-PIT): cancer cell death was induced by NIR-PIT in an NIR light-dose dependent manner
cell viability, APC alone (mEERL-hEGFR cells; without NIR light): Neither NIR light alone nor panitumumab IR700 alone induced significant alterations in cell viability

panitumumab NIR-PIT
histologic change of tumor cells (H-E staining) (mEERL-hEGFR tumors [7]): swelling and vacuolation of the tumor cell
tumor volume (mEERL-hEGFR tumors [8]; mixed antibody/APC i.v., NIR light 50 J/cm^2 once 1 day later): not significantly decreased
mice in which the tumor was cleared (mEERL-hEGFR tumors [8]; n=12-13): 1/12
